Data reported in US9078444B2, “Isothiazoline derivatives as insecticidal compounds” (Syngenta Participations AG, priority 2011, dated 2015).

Assays:
Assay type in all cases: in vivo
[1] = tested on: Spodoptera littoralis; test: Spodoptera littoralis (Egyptian cotton leafworm) cotton leaf disc test; conditions: foliar, 72 h, 200 ppm sprayed on cotton leaf discs, mortality, feeding behavior, growth regulation 3 days after treatment
Method: Spodoptera littoralis (Egyptian Cotton Leafworm): Cotton leaf discs were placed on agar in a 24-well microtiter plate and sprayed with test solutions at an application rate of 200 ppm. After drying, the leaf discs were infested with […]. The samples were checked for mortality, feeding behavior, and growth regulation 3 days after treatment (DAT).

[2] = tested on: Heliothis virescens; test: Heliothis virescens (tobacco budworm) egg test on artificial diet; conditions: 96 h, 200 ppm (concentration in well 18 ppm), eggs on artificial diet, egg mortality, larval mortality, growth regulation after 4 days
Method: Heliothis virescens (Tobacco Budworm): Eggs (0-24 h old) were placed in 24-well microtiter plate on artificial diet and treated with test solutions at an application rate of 200 ppm (concentration in well 18 ppm) by pipetting. After an incubation period of 4 days, samples were checked for egg mortality, larval mortality, and growth regulation.

[3] = tested on: Plutella xylostella; test: Plutella xylostella (diamond back moth) artificial diet test; conditions: 144 h, 200 ppm (concentration in well 18 ppm), L2 larvae, larval mortality and growth regulation after 6 days
Method: (§1) Plutella xylostella (Diamond Back Moth): 24-well microtiter plate (MTP) with artificial diet was treated with test solutions at an application rate of 200 ppm (concentration in well 18 ppm) by pipetting. After drying, the MTPs were infested with L2 larvae (7-12 per well). After an incubation period of 6 days, samples were checked for larval mortality and growth regulation.

[4] = tested on: Diabrotica balteata; test: Diabrotica balteata (corn root worm) artificial diet test; conditions: 120 h, 200 ppm (concentration in well 18 ppm), L2 larvae, larval mortality and growth regulation after 5 days
Method: as §1, with “Diabrotica balteata (Corn Root Worm): A” for “Plutella xylostella (Diamond Back Moth):”, “(6-10” for “(7-12”, “5” for “6”

[5] = tested on: Thrips tabaci; test: Thrips tabaci (onion thrips) sunflower leaf disc test; conditions: foliar, 168 h, 200 ppm sprayed on sunflower leaf discs, mixed ages, mortality after 7 days
Method: Thrips tabaci (Onion Thrips): Sunflower leaf discs were placed on agar in a 24-well microtiter plate and sprayed with test solutions at an application rate of 200 ppm. After drying, the leaf discs were infested with a thrips population of mixed ages. After an incubation period of 7 days, samples were checked for mortality.

[6] = tested on: Tetranychus urticae; test: Tetranychus urticae (two-spotted spider mite) bean leaf disc test; conditions: foliar, 192 h, 200 ppm sprayed on bean leaf discs, mixed ages, egg, larval and adult mortality 8 days later
Excerpt: Tetranychus urticae (Two-Spotted Spider Mite): Bean leaf discs on agar in 24-well microtiter plates were sprayed with test solutions at an application rate of 200 ppm. After drying, the leaf discs are infested with mite populations of mixed ages. 8 days later, discs are checked for egg mortality, larval mortality, and adult mortality.

Measured: pest or weed control at 200 ppm

Cc1cc(C2=NSC(c3cc(Cl)cc(Cl)c3)(C(F)(F)F)C2)ccc1C(=O)NC1CSC1 (stereo not drawn) [Compound A22, 4-[5-(3,5-Dichloro-phenyl)-5-trifluoromethyl-4,5-dihydro-isothiazol-3-yl]-2-methyl-N-thietan-3-yl-benzamide]
≥ 80%: all assays above

CSCCNC(=O)c1ccc(C2=NSC(c3cc(Cl)cc(Cl)c3)(C(F)(F)F)C2)cc1C (stereo not drawn) [Compound A26]
≥ 80%: all assays above

Cc1cc(C2=NSC(c3cc(Cl)cc(Cl)c3)(C(F)(F)F)C2)ccc1C(=O)NC1CCSC1 (stereo not drawn) [Compound A27]
≥ 80%: all assays above

Cc1cc(C2=NSC(c3cc(Cl)cc(Cl)c3)(C(F)(F)F)C2)ccc1C(=O)NCC1CSC1 (stereo not drawn) [Compound A28]
≥ 80%: all assays above

Cc1cc(C2=NSC(c3cc(Cl)cc(Cl)c3)(C(F)(F)F)C2)ccc1C(=O)NCC1CCS1 (stereo not drawn) [Compound A30]
≥ 80%: all assays above

Cc1cc(C2=NSC(c3cc(Cl)cc(Cl)c3)(C(F)(F)F)C2)ccc1C(=O)NCC1CCS1(=O)=O (stereo not drawn) [Compound A31]
≥ 80%: all assays above

Cc1cc(C2=NSC(c3cc(Cl)cc(Cl)c3)(C(F)(F)F)C2)ccc1C(=O)NCCF (stereo not drawn) [Compound A34]
≥ 80%: all assays above

C#CCNC(=O)c1ccc(C2=NSC(c3cc(Cl)cc(Cl)c3)(C(F)(F)F)C2)cc1C (stereo not drawn) [Compound A35]
≥ 80%: all assays above

CCCNC(=O)c1ccc(C2=NSC(c3cc(Cl)cc(Cl)c3)(C(F)(F)F)C2)cc1C (stereo not drawn) [Compound A36]
≥ 80%: all assays above

Cc1cc(C2=NSC(c3cc(Cl)cc(Cl)c3)(C(F)(F)F)C2)ccc1C(=O)Nc1ncccn1 (stereo not drawn) [Compound A38]
≥ 80%: all assays above

Cc1cc(C2=NSC(c3cc(Cl)cc(Cl)c3)(C(F)(F)F)C2)ccc1C(=O)NC(C)C (stereo not drawn) [Compound A39]
≥ 80%: all assays above

Cc1cc(C2=NSC(c3cc(Cl)cc(Cl)c3)(C(F)(F)F)C2)ccc1C(=O)NCC1CCC1 (stereo not drawn) [Compound A40]
≥ 80%: all assays above

Cc1cc(C2=NSC(c3cc(Cl)cc(Cl)c3)(C(F)(F)F)C2)ccc1C(=O)NCC(F)F (stereo not drawn) [Compound A42]
≥ 80%: all assays above

Cc1cc(C2=NSC(c3cc(Cl)cc(Cl)c3)(C(F)(F)F)C2)ccc1C(=O)Nc1cncnc1 (stereo not drawn) [Compound A48]
≥ 80%: all assays above

Cc1cc(C2=NSC(c3cc(Cl)cc(Cl)c3)(C(F)(F)F)C2)ccc1C(=O)NC1CCc2ccccc21 (stereo not drawn) [Compound A50]
≥ 80%: all assays above

COCCNC(=O)c1ccc(C2=NSC(c3cc(Cl)cc(Cl)c3)(C(F)(F)F)C2)cc1C (stereo not drawn) [Compound A51]
≥ 80%: all assays above

Cc1cc(C2=NSC(c3cc(Cl)cc(Cl)c3)(C(F)(F)F)C2)ccc1C(=O)NC1CC1 (stereo not drawn) [Compound A52]
≥ 80%: all assays above

Cc1cc(C2=NSC(c3cc(Cl)cc(Cl)c3)(C(F)(F)F)C2)ccc1C(=O)NCCC1OCCO1 (stereo not drawn) [Compound A54]
≥ 80%: all assays above

Cc1cc(C2=NSC(c3cc(Cl)cc(Cl)c3)(C(F)(F)F)C2)ccc1C(=O)Nc1ccccc1F (stereo not drawn) [Compound A60]
≥ 80%: all assays above

CNC(=O)c1ccc(C2=NSC(c3cc(Cl)cc(Cl)c3)(C(F)(F)F)C2)cc1C (stereo not drawn) [Compound A62]
≥ 80%: all assays above

C=CCNC(=O)c1ccc(C2=NSC(c3cc(Cl)cc(Cl)c3)(C(F)(F)F)C2)cc1C (stereo not drawn) [Compound A63]
≥ 80%: all assays above

CCN1OC[C@@H](NC(=O)c2ccc(C3=NS[C@@](c4cc(Cl)cc(Cl)c4)(C(F)(F)F)C3)cc2C)C1=O [Compound A78, 4-[(5S)-5-(3,5-dichlorophenyl)-5-(trifluoromethyl)-4H-isothiazol-3-yl]-N-[(4R)-2-ethyl-3-oxo-isoxazolidin-4-yl]-2-methyl-benzamide]
≥ 80%: all assays above

Cc1cc(C2=NS[C@@](c3cc(Cl)cc(Cl)c3)(C(F)(F)F)C2)ccc1C(=O)N[C@@H]1CON(CC(F)(F)F)C1=O [Compound A79, 4-[(5S)-5-(3,5-dichlorophenyl)-5-(trifluoromethyl)-4H-isothiazol-3-yl]-2-methyl-N-[(4R)-3-oxo-2-(2,2,2-trifluoroethyl)isoxazolidin-4-yl]benzamide]
≥ 80%: all assays above
